Row | melting point | Structure (SMILES)
1 | 194 to 195 °C | COc1cc(COc2cc(/C=C/C(=O)O)n(-c3ccccc3)n2)ccc1OCc1nc(-c2ccccc2)oc1C [Example 300, (E)-3-(3-{[3-methoxy-4-(5-methyl-2-phenyl-1,3-oxazol-4-ylmethoxy)benzyl]oxy}-1-phenyl-1H-pyrazol5-yl)-2-propenoic acid]
2 | 190 to 191 °C | COc1cc(CC(=O)Nc2nn(-c3ccccc3)cc2C=O)ccc1OCc1nc(-c2ccco2)oc1C [Example 303, N-(4-formyl-1-phenyl-1H-pyrazol-3-yl)-2-(4-{[2-(2-furyl)-5-methyl-1,3-oxazol-4-yl]methoxy}-3-methoxyphenyl)acetamide]
3 | 127 to 128 °C | Cc1oc(-c2ccccc2)nc1COc1ccc(OCc2oc(-c3ccccc3)nc2C=O)cc1 [Example 304, 5-({4-[(5-methyl-2-phenyl-1,3-oxazol-4-yl)methoxy]phenoxy}methyl)-2-phenyl-1,3-oxazole-4-carbaldehyde]
4 | 163 to 164 °C | COc1cc(COc2nc(-c3ccccc3)ncc2C(=O)O)ccc1OCc1nc(-c2ccco2)oc1C [Example 305, 4-[(4-{[2-(2-furyl)-5-methyl-1,3-oxazol-4-yl]methoxy}-3-methoxybenzyl)oxy]-2-phenylpyrimidine-5-carboxylic acid]
5 | 183 to 184 °C | COC(=O)c1cccc(-c2nc(COc3ccc(COc4nn(-c5ccccc5)cc4/C=C/c4nc(N5CCOCC5)sc4C)cc3OC)c(C)o2)c1 [Example 309, methyl 3-[4-({2-methoxy-4-[({4-[(E)-2-(5-methyl-2-morpholin-4-yl-1,3-thiazol-4-yl)ethenyl]-1-phenyl-1H-pyrazol-3-yl}oxy)methyl]phenoxy}methyl)-5-methyl-1,3-oxazol-2-yl]benzoate]
6 | 215 to 217 °C (dec.) | COc1cc(COc2nn(-c3ccccc3)cc2/C=C/c2nc(N3CCOCC3)sc2C)ccc1OCc1nc(-c2cccc(C(=O)O)c2)oc1C [Example 310, 3-[4-({2-methoxy-4-[({4-[(E)-2-(5-methyl-2-morpholin-4-yl-1,3-thiazol-4-yl)ethenyl]-1-phenyl-1H-pyrazol-3-yl}oxy)methyl]phenoxy)methyl)-5-methyl-1,3-oxazol-2-yl]benzoic acid]
7 | 150 to 151 °C | CCOC(=O)/C=C/c1nc(COc2ccc(COc3nn(-c4ccccc4)cc3C=O)cc2OC)c(C)o1 [Example 313, ethyl (2E)-3-{4-[(4-{[(4-formyl-1-phenyl-1H-pyrazol-3-yl)oxy]methyl}-2-methoxyphenoxy)methyl]-5-methyl-1,3-oxazol-2-yl}-2-propenoate]
8 | 195 to 196 °C | COC(=O)c1cc(-c2nc(COc3ccc(COc4nn(-c5ccccc5)cc4C=O)cc3OC)c(C)o2)ccc1C [Example 319, methyl 5-{4-[(4-{[(4-formyl-1-phenyl-1H-pyrazol-3-yl)oxy]methyl}-2-methoxyphenoxy)methyl]-5-methyl-1,3-oxazol-2-yl}-2-methylbenzoate]
9 | 95 to 96 °C | CCOC(=O)/C=C/c1nc(COc2ccc(COc3nn(-c4ccccc4)cc3/C=C/c3csc(CC)n3)cc2OC)c(C)o1 [Example 322 (E form), ethyl (2E)-3-[4-({4-[({4-[(E)-2-(2-ethyl-1,3-thiazol-4-yl)ethenyl]-1-phenyl-1H-pyrazol-3-yl}oxy)methyl]-2-methoxyphenoxy}methyl)-5-methyl-1,3-oxazol-2-yl]-2-propenoate]
10 | 119 to 120 °C | CCOC(=O)/C=C/c1nc(COc2ccc(COc3nn(-c4ccccc4)cc3/C=C\c3csc(CC)n3)cc2OC)c(C)o1 [Example 322 (Z form), ethyl (2E)-3-[4-({4-[({4-[(Z)-2-(2-ethyl-1,3-thiazol-4-yl)ethenyl]-1-phenyl-1H-pyrazol-3-yl}oxy)methyl]-2-methoxyphenoxy}methyl)-5-methyl-1,3-oxazol-2-yl]-2-propenoate]
11 | 125 to 126 °C | CCc1nc(/C=C/c2cn(-c3ccccc3)nc2OCc2ccc(OCc3nc(/C=C/C(=O)O)oc3C)c(OC)c2)cs1 [Example 323, (2E)-3-[4-({4-[({4-[(E)-2-(2-ethyl-1,3-thiazol-4-yl)ethenyl]-1-phenyl-1H-pyrazol-3-yl}oxy)methyl]-2-methoxyphenoxy}methyl)-5-methyl-1,3-oxazol-2-yl]-2-propenoic acid]
12 | 126 to 127 °C | CCOC(=O)C1CCN(c2nc(COc3ccc(COc4nn(-c5ccccc5)cc4C=O)cc3OC)c(C)s2)CC1 [Example 324, ethyl 1-(4-[(4-{[(4-formyl-1-phenyl-1H-pyrazol-3-yl)oxy]methyl}-2-methoxyphenoxy)methyl]-5-methyl-1,3-thiazol-2-yl}piperidine-4-carboxylate]
13 | 156 to 157 °C | CCOC(=O)c1ccc(-c2nc(COc3ccc(COc4nn(-c5ccccc5)cc4C=O)cc3OC)c(C)o2)s1 [Example 327, ethyl 5-{4-[(4-{[(4-formyl-1-phenyl-1H-pyrazol-3-yl)oxy]methyl}-2-methoxyphenoxy)methyl]-5-methyl-1,3-oxazol-2-yl}thiophene-2-carboxylate]
14 | 145 to 146 °C | CCOC(=O)c1ccc(-c2nc(COc3ccc(COc4nn(-c5ccccc5)cc4/C=C/c4csc(CC)n4)cc3OC)c(C)o2)s1 [Example 330 (E form), ethyl 5-[4-({4-[({4-[(E)-2-(2-ethyl-1,3-thiazol-4-yl)ethenyl]-1-phenyl-1H-pyrazol-3-yl}oxy)methyl]-2-methoxyphenoxy}methyl)-5-methyl-1,3-oxazol-2-yl]thiophene-2-carboxylate]
15 | 118 to 119 °C | CCOC(=O)c1ccc(-c2nc(COc3ccc(COc4nn(-c5ccccc5)cc4/C=C\c4csc(CC)n4)cc3OC)c(C)o2)s1 [Example 330 (Z form), ethyl 5-[4-({4-[({4-[(Z)-2-(2-ethyl-1,3-thiazol-4-yl)ethenyl]-1-phenyl-1H-pyrazol-3-yl}oxy)methyl]-2-methoxyphenoxy}methyl)-5-methyl-1,3-oxazol-2-yl]thiophene-2-carboxylate]
16 | 150 to 151 °C | CCc1nc(/C=C/c2cn(-c3ccccc3)nc2OCc2ccc(OCc3nc(-c4ccc(C(=O)O)s4)oc3C)c(OC)c2)cs1 [Example 331, 5-[4-({4-[({4-[(E)-2-(2-ethyl-1,3-thiazol-4-yl)ethenyl]-1-phenyl-1H-pyrazol-3-yl}oxy)methyl]-2-methoxyphenoxy}methyl)-5-methyl-1,3-oxazol-2-yl]thiophene-2-carboxylic acid]
17 | 161 to 162 °C | COc1cc(COc2nn(-c3ccccc3)cc2C=O)ccc1OCc1nc(-c2cccc(C#N)c2)oc1C [Example 332, 3-{4-[(4-{[(4-formyl-1-phenyl-1H-pyrazol-3-yl)oxy]methyl)-2-methoxyphenoxy}methyl]-5-methyl-1,3-oxazol-2-yl}benzonitrile]
18 | 140 to 141 °C | CCOC(=O)Cc1ccc(-c2nc(COc3ccc(COc4nn(-c5ccccc5)cc4/C=C/c4csc(CC)n4)cc3OC)c(C)o2)cc1 [Example 338, ethyl {4-[4-({4-[({4-[(E)-2-(2-ethyl-1,3-thiazol-4-yl)ethenyl]-1-phenyl-1H-pyrazol-3-yl}oxy)methyl]-2-methoxyphenoxy}methyl)-5-methyl-1,3-oxazol-2-yl]phenyl}acetate]
19 | 136 to 137 °C | CCOC(=O)Cc1ccc(-c2nc(COc3ccc(COc4nn(-c5ccccc5)cc4/C=C\c4csc(CC)n4)cc3OC)c(C)o2)cc1 [Example 338, ethyl {4-[4-({4-[({4-[(Z)-2-(2-ethyl-1,3-thiazol-4-yl)ethenyl]-1-phenyl-1H-pyrazol-3-yl}oxy)methyl]-2-methoxyphenoxy}methyl)-5-methyl-1,3-oxazol-2-yl]phenyl}acetate]
20 | 134 to 135 °C | CCOC(=O)Cc1ccc(-c2nc(COc3ccc(COc4nn(-c5ccccc5)cc4/C=C/c4cncn4CC)cc3OC)c(C)o2)cc1 [Example 340, ethyl {4-[4-({4-[({4-[(E)-2-(1-ethyl-1H-imidazol-5-yl)ethenyl]-1-phenyl-1H-pyrazol-3-yl}oxy)methyl]-2-methoxyphenoxy)methyl)-5-methyl-1,3-oxazol-2-yl]phenyl}acetate]
21 | 85 to 86 °C | CCOC(=O)Cc1ccc(-c2nc(COc3ccc(COc4nn(-c5ccccc5)cc4/C=C\c4cncn4CC)cc3OC)c(C)o2)cc1 [Example 340, ethyl {4-[4-({4-[({4-[(Z)-2-(1-ethyl-1H-imidazol-5-yl)ethenyl]-1-phenyl-1H-pyrazol-3-yl}oxy)methyl]-2-methoxyphenoxy}methyl)-5-methyl-1,3-oxazol-2-yl]phenyl}acetate]
22 | 140 to 141 °C | CCOC(=O)Cc1ccc(-c2nc(COc3ccc(COc4nn(-c5ccccc5)cc4/C=C/c4cn(CC)cn4)cc3OC)c(C)o2)cc1 [Example 343, ethyl (4-{4-[(4-[({4-[(E)-2-(1-ethyl-1H-imidazol-4-yl)ethenyl]-1-phenyl-1H-pyrazol-3-yl}oxy)methyl]-2-methoxyphenoxy)methyl]-5-methyl-1,3-oxazol-2-yl}phenyl)acetate]
23 | 140 to 141 °C | CCOC(=O)Cc1ccc(-c2nc(COc3ccc(COc4nn(-c5ccccc5)cc4/C=C\c4cnn(CC)c4)cc3OC)c(C)o2)cc1 [Example 346, ethyl {4-[4-({4-[({4-[(Z)-2-(1-ethyl-1H-pyrazol-4-yl)ethenyl]-1-phenyl-1H-pyrazol-3-yl}oxy)methyl]-2-methoxyphenoxy}methyl)-5-methyl-1,3-oxazol-2-yl]phenyl}acetate]
24 | 101 to 102 °C | COc1cc(CN(C)c2nn(-c3ccccc3)cc2C=O)ccc1OCc1nc(-c2ccco2)oc1C [Example 349, 3-([4-{[2-(2-furyl)-5-methyl-1,3-oxazol-4-yl]methoxy}-3-methoxybenzyl](methyl)amino)-1-phenyl-1H-pyrazole-4-carbaldehyde]
25 | 153 to 155 °C | CCOC(=O)Cc1ccc(-c2nc(COc3ccc(COc4nn(-c5ccccc5)cc4/C=C/c4csc(C)n4)cc3OC)c(C)o2)cc1 [Example 356, ethyl {4-[4-({2-methoxy-4-[({4-[(E)-2-(2-methyl-1,3-thiazol-4-yl)ethenyl]-1-phenyl-1H-pyrazol-3-yl}oxy)methyl]phenoxy}methyl)-5-methyl-1,3-oxazol-2-yl]phenyl}acetate]
